# Results: patent publication US5994363A (priority 1998, dated 1999)
# What was measured:
# [1] = Apomorphine in human patients: erection and side effects (prior studies / general findings); assay type: in vivo; settings: apomorphine dosage forms
# Source text: The specific mechanisms by which apomorphine acts to produce an erectile response in a human patient are not yet completely understood, however.
# [2] = clinical; settings: human, plasma
# [3] = Nerve stimulated clitoral and vaginal wall blood flow in females; assay type: in vivo; settings: administration to females
# [4] = Plasma concentration profile in dog at day 1, 90 and 180 (Example 2); assay type: in vivo; settings: day 1, day 90 or day 180, 0.04, 0.1, 0.4 mg/kg
# Protocol: To assess whether the reduction in side effects could be attributable to changes in pharmacokinetic response, a plasma concentration profile study was conducted for each dosage group at day 1, day 90 and day 180.
# [5] = cited from earlier work
# [6] = cited from earlier work; remark: listed apart in the source
# [7] = Plasma concentration or dose threshold for adverse effects
# [8] = Pharmacokinetic comparison of 4- and 8-mg sublingual tablets with 1 mg i.v. in healthy male volunteers (Example 4)
# [9] = cited from earlier work; remark: listed apart in the source
# [10] = Bioavailability by route of administration in dog (Example 3); settings: in vivo
# [11] = Adverse events in escalating dose tolerance study in psychogenic male erectile dysfunction (Example 5); assay type: in vivo, human; settings: in vivo
# Protocol: Example 5-Summary. This clinical study was conducted in three phases. In Phase 1 subjects were selected from among patients complaining of impotence by a thorough physiological and psychological assessment. For example, one step in the assessment process required candidates to undergo Rigiscan measurement of penile rigidity and circumference following administration of a placebo tablet in single blind fashion. Phase 2 consisted of a dose escalation (4, 6, and 8 mg tablets) administered on 4 visits. An out-patient phase was conducted as Phase 3. Patients were given apomorphine HCL tablets to use at home.
# Example-5 Detailed Description (Clinical Study #94-03-01). The human study was conducted in three separate phases. Phase 1 consisted of selecting appropriate subjects and obtaining baseline information on sexual performance for each subject.
# They were tested on four separate days at four separate doses (placebo and three active medication doses) with an interval of no less than six days between visits (i.e., one visit per week).
# If the trial was aborted, the patient was given the choice of having Gravol 50 mg p.o. (an anti-emetic) administered at that time or enduring the adverse events as they arose. In either event, the patient was monitored by the research clinician until all side-effects had subsided. The patient was asked to return the following week for the next scheduled dose.
# During the five-week, home-use phase, subjects were to attempt coitus at least once each week after taking a single APO tablet. After each attempt, the subject and their partner completed a Sexual Function questionnaire (See FIGS. 15 and 16) which was later evaluated and used for final statistical analysis.
# The data was analyzed by an inspection of the reported adverse events, the given dose of apomorphine and the phase of the study, i.e., in-patient (dose escalating) or take-home (constant dose) phases.
smiles,measurement,setting,value
"CN1CCc2cccc3c2[C@H]1Cc1ccc(O)c(O)c1-3 [apomorphine, (R)-5,6,6a,7-Tetrahydro-6-methyl-4H-dibenzo-[de,g] quinoline-10,11-diol]",effectiveness in Parkinson's disease and psychogenic erectile dysfunction,[1],effective
same,AUC,[2]; 4 mg,0.527 ng·h/mL
same,Cmax,[2]; 4 mg,0.83 ng/mL
same,AUC,[2]; 8 mg,4.72 ng·h/mL
same,AUC,"[2]; iv, 1 mg",3.45 ng·h/mL
same,Cmax,"[2]; iv, 1 mg",8.3 ng/mL
same,nerve stimulated clitoral intracavernosal and vaginal wall blood flow,[3],increases nerve stimulated clitoral intracavernosal blood flow and vaginal wall blood flow
same,"AUC, distribution, or elimination over repeated dosing",[4],No evidence of significant changes
same,nausea and vomiting after large doses,"[5]; large doses, mammals such as humans, dogs",usually results in nausea and vomiting
same,emetic dose,"[5]; subcutaneous, recognized use as an emetic",~5 milligram
same,side effects / therapeutic usefulness (Segraves),[6]; erectile responses in human males,too many side effects to have therapeutic usefulness
same,erection in psychogenic male patients,[6]; psychogenic impotence,can indeed induce an erection in a psychogenic patient
same,side effects at dose required for significant erectile response,[6]; psychogenic impotence,"usually accompanied by nausea or other serious undesirable side effects, including hypertension, flushing and diaphoresis (sweating)"
same,plasma concentration at which incidence of adverse side effects is minimal,[7]; plasma concentration maintained at no more than,no more than 5.5 ng/ml
same,threshold concentration (Cmax) for onset of adverse effects,"[7]; plasma, human male subjects, nausea",about 2.5 nanograms/milliliter
same,threshold dose for most impotence patients,"[7]; sublingual tablet, week 1",2 mg
same,MRT (mean residual time),[8]; i.v. 1 mg,40.3 min
same,Vd (volume of distribution @ β stage),[8]; s.l. tablet 8 mg,2.07 L/kg
same,lethality of larger infusion dose,"[9]; 1,500 μg/kg/hr, 14 day study",minimally lethal
same,tolerated continuous infusion dose,"[9]; continuous infusion, 14 days",420 µg/kg/h
same,AUC,[10]; 0.2 mg/kg,5.45 ng·h/mL
same,AUC,"[10]; po, 0.2 mg/kg",1.58 ng·h/mL
same,AUC,"[10]; sc, 0.04 mg/kg",8.06 ng·h/mL
same,blood or urinalysis values,[11],no clinically significant changes
